Test results from patent US20180201592A1, “2-AMINO-1,3,4-THIADIAZINE AND 2-AMINO-1,3,4-OXADIAZINE BASED ANTIFUNGAL AGENTS” (F2G Limited, priority 2015, published 2018).

Key:
Conditions in all cases: banded MIC grade
[1] = system: A. terreus 49; assay: Minimum inhibitory concentration, YAG medium; format: cell-based, Aspergillus terreus
How it was run: (§1)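 MIC values (mg/L) were derived from well optical density at 485 nm. Plates with Aspergillus spores and doubling aqueous dilutions of compound (5 mg/mL DMSO stock) had been incubated at 35° C for 24 hrs.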

[2] = system: A. flavus; assay: Minimum inhibitory concentration, RPMI medium; format: cell-based
How it was run: (§2)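 Thawed 5 mg/mL DMSO stocks are vortexed, diluted into sterile water and serially halved in water. The MIC test is then run in RPMI 1640 at 35° C for 24-48 hrs. Wells are read at OD 485 nm.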

[3] = system: C. tropicalis; assay: Minimum inhibitory concentration, RPMI medium; format: cell-based
How it was run: as §2

[4] = system: C. glabrata; assay: Minimum inhibitory concentration, RPMI medium; format: cell-based
How it was run: as §2

[5] = system: A. terreus 49; assay: Minimum inhibitory concentration, RPMI medium; format: cell-based
How it was run: as §2

[6] = system: C. albicans; assay: Minimum inhibitory concentration, RPMI medium; format: cell-based
How it was run: as §2

[7] = system: A. terreus; assay: Minimum inhibitory concentration, RPMI medium; format: cell-based
How it was run: as §2

[8] = system: A. niger; assay: Minimum inhibitory concentration, RPMI medium; format: cell-based
How it was run: as §2

[9] = system: C. parapsilosis; assay: Minimum inhibitory concentration, RPMI medium; format: cell-based
How it was run: as §2

[10] = system: C. krusei; assay: Minimum inhibitory concentration, RPMI medium; format: cell-based
How it was run: as §2

[11] = system: Aspergillus flavus; assay: Minimum inhibitory concentration, YAG medium; format: cell-based
How it was run: as §1

[12] = system: Aspergillus niger; assay: Minimum inhibitory concentration, YAG medium; format: cell-based
How it was run: as §1

[13] = system: Aspergillus terreus; assay: Minimum inhibitory concentration, YAG medium; format: cell-based
How it was run: as §1

[14] = system: A. fumigatus 210; assay: Minimum inhibitory concentration, YAG medium; format: cell-based, Aspergillus fumigatus
How it was run: (§3)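 Testing uses spores harvested after 5 days on Sabouraud agar, grown 24 hrs at 35° C in glucose/ammonium chloride/yeast extract (YAG) medium against twofold drug dilutions. Optical density at 485 nm defines MIC as >70% growth reduction compared with drug-free wells.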

[15] = system: A. fumigatus 210; assay: Minimum inhibitory concentration, RPMI medium; format: cell-based
How it was run: (§4)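 Compound doubling dilutions were prepared from 5 mg/mL DMSO stock; fungus was diluted in RPMI 1640 with 2% glucose and 0.135 M MOPS (pH 7.0), giving inocula of 1-2×10^4 cfu/mL and drug range 50-0.05 mg/L. Plates ran 24-48 hrs at 35° C; MIC is the lowest concentration giving >80% growth inhibition by OD485 versus drug-free control.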

[16] = system: A. fumigatus; assay: Minimum inhibitory concentration, RPMI medium; format: cell-based
How it was run: as §4

[17] = system: Aspergillus fumigatus; assay: Minimum inhibitory concentration, YAG medium; format: cell-based
How it was run: as §3

| SMILES | MIC grade, A. TERREUS 49, YAG media [1] | MIC grade, A. FLAVUS, RPMI media [2] | MIC grade, C. TROPICALIS, RPMI media [3] | MIC grade, C. GLABRATA, RPMI media [4] | MIC grade, A. TERREUS 49, RPMI media [5] | MIC grade, C. ALBICANS, RPMI media [6] | MIC grade, A. TERREUS, RPMI media [7] | MIC grade, A. NIGER, RPMI media [8] | MIC grade, C. PARAPSILOSIS, RPMI media [9] | MIC grade, C. KRUSEI, RPMI media [10] | MIC grade, A. FLAVUS, YAG media [11] | MIC grade, A. NIGER, YAG media [12] | MIC grade, A. TERREUS, YAG media [13] | MIC grade, A. FUMIGATUS 210, YAG media [14] | MIC grade, A. FUMIGATUS 210, RPMI media [15] | MIC grade, A. FUMIGATUS, RPMI media [16] | MIC grade, A. FUMIGATUS, YAG media [17] |
| --- | --- | --- | --- | --- | --- | --- | --- | --- | --- | --- | --- | --- | --- | --- | --- | --- | --- |
| NC1=NN=C(CCCCOCc2ccc(Cl)cc2Cl)CS1 | 2 (2: 1-5 mg/L) | 2 (2: 5-20 mg/L) | 2 (2: 5-20 mg/L) | 1 (1: ≥20 mg/L) | 2 (2: 5-20 mg/L) | 2 (2: 5-20 mg/L) | 2 (2: 5-20 mg/L) | 1 (1: ≥20 mg/L) | 2 (2: 5-20 mg/L) | 2 (2: 5-20 mg/L) | 2 (2: 1-5 mg/L) | 3 (3: 0.2-1 mg/L) | 2 (2: 1-5 mg/L) | 2 (2: 1-5 mg/L) | 1 (1: ≥20 mg/L) | 1 (1: ≥20 mg/L) | 2 (2: 1-5 mg/L) |
| NC1=NN=C(CCCCOCc2cccc(C(F)(F)F)c2)CS1 | 2 (2: 1-5 mg/L) | 2 (2: 5-20 mg/L) | 2 (2: 5-20 mg/L) | 1 (1: ≥20 mg/L) | 2 (2: 5-20 mg/L) | 3 (3: 1-5 mg/L) | 2 (2: 5-20 mg/L) | 2 (2: 5-20 mg/L) | 2 (2: 5-20 mg/L) | 2 (2: 5-20 mg/L) | 3 (3: 0.2-1 mg/L) | 3 (3: 0.2-1 mg/L) | 2 (2: 1-5 mg/L) | 3 (3: 0.2-1 mg/L) | 1 (1: ≥20 mg/L) | 2 (2: 5-20 mg/L) | 3 (3: 0.2-1 mg/L) |
| NC1=NN=C(CCCCOCc2cccc(Br)c2)CS1 | 4 (4: <0.2 mg/L) | 4 (4: <1 mg/L) | 4 (4: <1 mg/L) | 3 (3: 1-5 mg/L) | 3 (3: 1-5 mg/L) | 4 (4: <1 mg/L) | 3 (3: 1-5 mg/L) | 3 (3: 1-5 mg/L) | 4 (4: <1 mg/L) | 4 (4: <1 mg/L) | 4 (4: <0.2 mg/L) | 4 (4: <0.2 mg/L) | 4 (4: <0.2 mg/L) | 4 (4: <0.2 mg/L) | 2 (2: 5-20 mg/L) | 4 (4: <1 mg/L) | 4 (4: <0.2 mg/L) |
